Read-outs that look alike come from different tables or passages of the source.
Columns and labels:
CDK2/cyclin A2 = target: T1, CDK2/cyclin A2 (Homo sapiens, UniProt P24941); assay: Human CDK2/cyclin A2 inhibitory activity (QS S Assist CDK2/Cyclin A2_FP Kit, IMAP fluorescence polarization); type: biochemical
T1 construct: purchased Carna Biosciences, Inc. QS S Assist CDK2/Cyclin A2_FP Kit
How it was run: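 Kinase activity read as fluorescence polarization (485/535 nm) after phosphorylated fluorescent substrate binds IMAP reagent (30 min, RT, dark). Enzyme (2.5 ng/well) reacted 60 min at RT with ATP/substrate/metal in HEPES pH 7.4 buffer with Tween 20 and DTT; no-enzyme wells define 0% activity; IC50 by curve fit.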

CDK4/cyclin D3 = target: T2, CDK4/cyclin D3 (Homo sapiens, UniProt P11802); assay: Human CDK4/cyclin D3 inhibitory activity (QS S Assist CDK4/Cyclin D3_FP Kit, IMAP fluorescence polarization); type: biochemical
T2 construct: purchased Carna Biosciences, Inc. QS S Assist CDK4/Cyclin D3_FP Kit
T2 sequence (P11802 whole entry): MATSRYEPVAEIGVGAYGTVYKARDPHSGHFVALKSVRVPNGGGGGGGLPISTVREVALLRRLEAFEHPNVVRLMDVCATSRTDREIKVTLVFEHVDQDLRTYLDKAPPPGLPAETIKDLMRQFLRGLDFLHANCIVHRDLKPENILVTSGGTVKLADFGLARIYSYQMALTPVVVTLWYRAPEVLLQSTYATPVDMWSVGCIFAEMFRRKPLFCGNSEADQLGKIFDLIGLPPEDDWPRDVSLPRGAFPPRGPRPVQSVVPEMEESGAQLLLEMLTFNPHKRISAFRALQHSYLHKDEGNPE
T2 sequence (P30281 whole entry partner): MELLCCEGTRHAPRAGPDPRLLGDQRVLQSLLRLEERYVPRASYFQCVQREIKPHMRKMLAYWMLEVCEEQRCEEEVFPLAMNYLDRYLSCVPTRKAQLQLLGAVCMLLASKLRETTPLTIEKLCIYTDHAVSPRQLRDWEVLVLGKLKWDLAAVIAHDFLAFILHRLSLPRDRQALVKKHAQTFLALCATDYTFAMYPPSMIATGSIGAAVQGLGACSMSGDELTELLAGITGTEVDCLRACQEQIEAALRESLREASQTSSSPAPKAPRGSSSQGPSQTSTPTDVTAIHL
How it was run: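 Percent inhibition, relative to DMSO with and without enzyme, was curve-fitted to give IC50 from polarization (ex 485, em 535 nm). The 45-min room-temperature reaction used 12.5-25 ng/well enzyme, kit ATP/substrate/metal mix, and HEPES pH 7.4 buffer with Tween20 and DTT, followed by 30-min IMAP binding in the dark.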

[1] = Human CDK2/cyclin A2 inhibitory activity, read-out: CDK2 Activity symbol
[2] = Human CDK4/cyclin D3 inhibitory activity, read-out: CDK4 Activity symbol
[3] = 50% inhibitory concentration against CDK2/cyclin A2, given as class symbol
[4] = 50% inhibitory concentration against CDK4/cyclin D3, given as class symbol

SMILES	IC50 (CDK2/cyclin A2; [1]) [nM]	IC50 (CDK4/cyclin D3; [2]) [nM]	IC50 (CDK2/cyclin A2; [3]) [nM]	IC50 (CDK4/cyclin D3; [4]) [nM]
C[C@@H](O)c1cc2cnc(Nc3ccc(CN4CCNCC4)cn3)nc2c(NC2CCCC2C(=O)O)n1 (some centres unmarked) [Compound 324]	≥ 100	≥ 100	–	–
C[C@@H](O)c1cc2cnc(Nc3ccc(CN4CCNCC4)cn3)nc2c(N[C@H]2CCOC2)n1 [Compound 258]	≥ 100	< 10	–	–
CO[C@H](C)c1cc2cnc(Nc3ccc(N4CCC(C)(N)CC4)nn3)nc2c(NC(C)C)n1 [Compound 560]	≥ 100	< 10	–	–
C[C@@H](O)c1cc2cnc(Nc3ccc(N4CCN(C=O)CC4=O)cn3)nc2c(N[C@H]2CCCOC2)n1 [Compound 352]	≥ 100	< 10	–	–
CC(C)Nc1nc([C@@H](C)O)cc2cnc(Nc3ccc(N4CCN(CCO)CC4)nn3)nc12 [Compound 510]	≥ 100	< 10	–	–
CC(C)Nc1nc(C(F)F)cc2cnc(Nc3ccc(N4CCNCC4)cn3)nc12 [Compound 46]	10 to 100	< 10	–	–
CC(C)Nc1nc(C(C)O)cc2cnc(Nc3ccc(N4CCC(O)CC4)cn3)nc12 (centres unmarked) [Compound 61]	≥ 100	< 10	–	–
CC(C)Nc1nc(C(F)F)cc2cnc(Nc3ccccn3)nc12 [Compound 82]	≥ 100	10 to 100	–	–
C[C@@H](O)c1cc2cnc(Nc3ccc4c(n3)CCN(C(=O)CO)C4)nc2c(NC2CCC(C)(C)CC2)n1 [Compound 654]	–	–	≥ 100	< 10
CC(C)Nc1nc(C(F)F)c(F)c2cnc(Nc3ccc(N4CCNCC4)cn3)nc12 [Compound 55]	10 to 100	< 10	–	–
COCC(C)(C)Nc1nc([C@@H](C)O)cc2cnc(Nc3ccc(CCCN4CCOCC4=O)cn3)nc12 [Compound 193]	≥ 100	10 to 100	–	–
CCCN1CCN(Cc2ccc(Nc3ncc4cc([C@@H](C)OC)nc(NC(C)C)c4n3)nc2)CC1 [Compound 239]	≥ 100	< 10	–	–
CC(C)Nc1nc([C@@H](C)O)cc2cnc(Nc3ccc(N4CCN(C(=O)CO)CC4)nn3)nc12 [Compound 659]	–	–	≥ 100	< 10
CC(C)Nc1nc([C@@H](C)O)cc2cnc(Nc3ccc(C4CCNCC4)nn3)nc12 [Compound 318]	≥ 100	< 10	–	–
CC(C)Nc1nc(C(F)F)cc2cnc(Nc3ccc(CCC(C)(C)O)cn3)nc12 [Compound 154]	≥ 100	< 10	–	–
CC(C)Nc1nc([C@@H](C)O)cc2cnc(Nc3ccc(N4CCC(N(C)C)CC4)nn3)nc12 [Compound 491]	≥ 100	< 10	–	–
CC(O)c1cc2cnc(Nc3ccc(N4CCNCC4)cn3)nc2c(Nc2ccn[nH]2)n1 (centres unmarked) [Compound 27]	≥ 100	10 to 100	–	–
C[C@@H](O)c1cc2cnc(Nc3ccc(N4CCNCC4)nn3)nc2c(NC2CCCCC2C(=O)O)n1 (some centres unmarked) [Compound 308]	≥ 100	≥ 100	–	–
CN(C)CCOc1ccc(Nc2ncc3cc(C(F)F)nc(NC4CCCOC4)c3n2)nc1 (centres unmarked) [Compound 366]	≥ 100	< 10	–	–
CC(C)Nc1nc([C@@H](C)O)cc2cnc(Nc3ccc(N4CC5(CC(N(C)C)C5)C4)nn3)nc12 [Compound 611]	≥ 100	< 10	–	–
CC(C)Nc1nc([C@@H](C)O)cc2cnc(Nc3ccc(CN4CCN(C(C)C)CC4)cn3)nc12 [Compound 633]	–	–	≥ 100	< 10
CC(C)Nc1nc(C(F)F)cc2cnc(Nc3ccc(CCC(N)=O)cn3)nc12 [Compound 121]	10 to 100	< 10	–	–
Cc1c(CO)nc(NC(C)C)c2nc(Nc3ccc(N4CCNCC4)cn3)ncc12 [Compound 62]	≥ 100	< 10	–	–
CC(C)Nc1nc([C@@H](C)O)cc2cnc(Nc3ccc(O[C@@H]4CCNC[C@H]4F)cn3)nc12 [Compound 567]	≥ 100	< 10	–	–
C[C@@H](O)c1nc(NC2CCOCC2)c2nc(Nc3ccc(N4CCNCC4)nn3)ncc2c1Cl [Compound 337]	≥ 100	< 10	–	–
CC(C)Nc1nc(C(C)O)cc2cnc(Nc3ccc(C4CCNCC4)cn3)nc12 (centres unmarked) [Compound 78]	≥ 100	< 10	–	–

Second part, the molecule after the results:

IC50 (CDK2/cyclin A2; [1]) [nM]	IC50 (CDK4/cyclin D3; [2]) [nM]	IC50 (CDK2/cyclin A2; [3]) [nM]	IC50 (CDK4/cyclin D3; [4]) [nM]	SMILES
–	–	≥ 100	< 10	COC1CCN(c2ccc(Nc3ncc4cc([C@@H](C)O)nc(NC(C)C)c4n3)nn2)CC1 [Compound 761]
–	–	≥ 100	< 10	C[C@@H](O)c1cc2cnc(Nc3ccc(CN4CCN(CCO)CC4)cn3)nc2c(NC2CCCC2)n1 [Compound 1070]
–	–	≥ 100	10 to 100	CO[C@H](C)c1cc2cnc(Nc3ccc(N4CCN(C(=O)C(C)C)CC4)nn3)nc2c(NC(C)C)n1 [Compound 747]
–	–	≥ 100	< 10	CC(C)Nc1nc(C(C)O)cc2cnc(Nc3ccc(C4CNCCO4)cn3)nc12 (single isomer, unassigned) [Compound 736]
–	–	≥ 100	< 10	CC(C)Nc1nc([C@@H](C)O)cc2cnc(Nc3ccc(CN4CCN(C(C)(C)CO)CC4)cn3)nc12 [Compound 700]
–	–	≥ 100	< 10	CC1(c2cc3cnc(Nc4ccc5c(n4)CCN(CCO)C5)nc3c(N[C@H]3CCCOC3)n2)COC1 [Compound 1129]
–	–	≥ 100	< 10	CN[C@H]1CC[C@H](Oc2ccc(Nc3ncc4cc([C@@H](C)O)nc(NC(C)C)c4n3)nc2)CC1 [Compound 737]
–	–	≥ 100	< 10	c1cc(Nc2ncc3cc(C4CCOC4)nc(N[C@H]4CCCOC4)c3n2)ncc1CN1CCNCC1 (single isomer, unassigned) [Compound 940]
–	–	≥ 100	< 10	CC(C)Nc1nc([C@@H](C)O)cc2cnc(Nc3ccc(N4CCOCC4=O)cn3)nc12 [Compound 804]
–	–	≥ 100	< 10	CC(C)Nc1nc([C@@H](C)O)cc2cnc(Nc3ccc(N(C)CCN(C)C)cn3)nc12 [Compound 1228]
–	–	≥ 100	< 10	CNC1CCCC1Oc1ccc(Nc2ncc3cc(C(C)O)nc(NC(C)C)c3n2)nc1 (centres unmarked) [Compound 801]
–	–	≥ 100	10 to 100	COC[C@H](C)Nc1nc([C@@H](C)O)cc2cnc(Nc3ccc(N4CCC(O)CC4)nn3)nc12 [Compound 760]
–	–	≥ 100	< 10	CC(C)Nc1nc([C@@H](C)O)cc2cnc(Nc3ccc(N4CCC(N(C)C)C4)nn3)nc12 (some centres unmarked) [Compound 1219]
–	–	≥ 100	10 to 100	CC(C)Nc1nc(C2(C)COC2)cc2cnc(Nc3ccc(N4CCN(CC(=O)O)CC4C(F)(F)F)cn3)nc12 (centres unmarked) [Compound 890]
–	–	≥ 100	< 10	CC(C)Nc1nc([C@@H](C)O)cc2cnc(Nc3ccc(N4CC(C)NCC4=O)cn3)nc12 (some centres unmarked) [Compound 1032]
–	–	≥ 100	< 10	CCCCNc1nc([C@@H](C)O)cc2cnc(Nc3ccc(CN4CCC(O)CC4)cn3)nc12 [Compound 1061]

IC50 (CDK2/cyclin A2; [1]) [nM]	IC50 (CDK4/cyclin D3; [2]) [nM]	IC50 (CDK2/cyclin A2; [3]) [nM]	IC50 (CDK4/cyclin D3; [4]) [nM]	SMILES
–	–	≥ 100	< 10	CC(C)Nc1nc([C@@H](C)O)cc2cnc(Nc3ccc(N4CCN(CC#N)CC4=O)cn3)nc12 [Compound 899]
–	–	≥ 100	< 10	CC(C)Nc1nc([C@@H](C)O)cc2cnc(Nc3ccc(NC(=O)C4CCNCC4)cn3)nc12 [Compound 768]
–	–	≥ 100	< 10	Cc1nc(Nc2ncc3cc([C@@H](C)O)nc(NC4CCC4)c3n2)ccc1N1CCNCC1=O [Compound 1048]
–	–	≥ 100	10 to 100	CCCNc1nc([C@@H](C)O)cc2cnc(Nc3ccc4c(n3)CCN(CCO)C4)nc12 [Compound 1123]
–	–	≥ 100	< 10	CO[C@H](C)c1cc2cnc(Nc3ccc(OC4CCNCC4)cn3)nc2c(NC2CCOCC2)n1 [Compound 873]
–	–	≥ 100	< 10	C[C@@H](O)c1cc2cnc(Nc3ccc(N4CCNCC4)cn3)nc2c(N[C@@H]2CCOC2)n1 [Compound 995]
–	–	≥ 100	< 10	CCCNc1nc([C@@H](C)O)cc2cnc(Nc3ccc(CN4CCC[C@@H](O)C4)cn3)nc12 [Compound 1195]
–	–	≥ 100	< 10	CC(C)Nc1nc([C@@H](C)O)cc2cnc(Nc3ccc(N4CCN(CC(F)(F)F)CC4)nn3)nc12 [Compound 963]
–	–	≥ 100	< 10	CC(C)Nc1nc(C(C)O)cc2cnc(Nc3ccc(N4CCNCC4C(F)(F)F)cn3)nc12 (single isomer, unassigned) [Compound 776]
–	–	≥ 100	10 to 100	COC(=O)N1CCN(c2ccc(Nc3ncc4cc([C@@H](C)OC)nc(N[C@H]5CCCOC5)c4n3)nn2)CC1 [Compound 1056]
–	–	10 to 100	< 10	C[C@@H](O)c1cc2cnc(Nc3ccc(N4CCNCC4=O)cn3)nc2c(NC2(C)CCCOC2)n1 (some centres unmarked) [Compound 903]
–	–	≥ 100	< 10	C[C@@H](O)c1cc2cnc(Nc3ccc(CN4CCN(CCO)CC4)cn3)nc2c(NCCC(F)(F)F)n1 [Compound 1214]
–	–	≥ 100	< 10	C[C@@H](O)c1cc2cnc(Nc3ccc(N4CCNCC4)cn3)nc2c(N[C@H]2CCOC2)n1 [Compound 994]
–	–	≥ 100	< 10	CC(C)Nc1nc([C@@H](C)O)cc2cnc(Nc3ccc(N4CCC(CO)CC4)nn3)nc12 [Compound 660]
–	–	≥ 100	< 10	C[C@@H](O)c1cc2cnc(Nc3ccc(CN4CCCC(O)C4)cn3)nc2c(N[C@H]2CCCOC2)n1 (some centres unmarked) [Compound 1128]
–	–	≥ 100	< 10	CC(C)Nc1nc([C@@H](C)O)cc2cnc(Nc3ccc(CN4CCN(CC(=O)N(C)C)CC4)cn3)nc12 [Compound 1018]
